Assay results taken from US6410535B1, “Prophylactic or therapeutic agents for diseases having vascular dysfunction associated with insulin resistance” (Suntory Limited, priority 1998, dated 2002).
Counter-ions that a name gives are not always drawn.

Assays:
[1] = as reported in Japanese Patent Public Disclosure No. 25323/84; cited from earlier work
[2] = rat, in vivo, po
[3] = tested on: thoracic aorta sections; experiment: Endothelium-dependent vasorelaxation induced by acetylcholine, isometric tensiometry; type: in vivo, Sprague-Dawley rats; details: for Endothelium-dependent vasorelaxation induced by acetylcholine, Average / Endothelium-dependent vasorelaxation induced by acetylcholine, Average (TABLE 3): 10 mg/kg/day oral, 8 weeks; for Endothelium-dependent vasorelaxation induced by acetylcholine, Average: acetylcholine 10^−5 M, vs 10^−4 M papaverine; for Endothelium-dependent vasorelaxation induced by acetylcholine, Average (TABLE 3): repeat print of Table 3
Experimental: (§1) Male Sprague-Dawley rats (150 g, supplied from Charles River) were used to prepare a model group with insulin resistance induced by fructose feed loading (hereinafter referred to as “FR group”) according to the procedure described by Hwang et al. (Hwang, I-H. et al., Hypertension 10:512, 1987). A control group grown with a starch feed (hereinafter referred to as “CTR group”) was also prepared (FR group: n=16; CTR group: n=16). FR group received a feed containing 67% (hereinafter meaning % by weight) carbohydrate (containing 98% fructose available from Oriental Yeast Co., Ltd.), 13% fat and 20% protein, while CTR group received a feed containing 58% carbohydrate, 12% fat and […]. […] After 8 weeks, the thoracic aorta was collected. For each group, endothelium-separated sections (EC (−)) and non-separated sections (EC (+)) were prepared and examined for superoxide anion (O2^−) production level, endothelial NOS (eNOS) activity and endothelium-dependent vasorelaxation.
(§2) Group-to-group statistic analyses were made by one-way ANOVA, with the significance level being p<0.05. Multiple comparison was made by Bonferronl/Dunn, with the significance level being p<0.05.
Measurement of endothelium-dependent vasorelaxation was made by the isometric tensiometry (Toda, N. et al., Stroke 24: 1584, 1993) using ink-writing oscillographs (Nippon Kohden Corporation) and a force-displacement transducer (Nippon Kohden Corporation). Data were shown as % maximum relaxation vs. the maximum relaxation induced by 10^−4 M papaverine after aortic sections were partially precontracted with 1-3×10^−7 M 1-phenylephrine. Endothelium-dependent vasorelaxation induced by acetylcholine (10^−5M) and calcium ionophore (A23187, Sigma) (3×10^−7 M) in EC (+) of each of the 4 groups are shown in Tables 3 and 4, respectively.

[4] = tested on: thoracic aorta tissue sections; experiment: Superoxide anion (O2−) production level in thoracic aorta tissue sections, lucigenin-enhanced chemiluminescence; type: in vivo, Sprague-Dawley rats; details: for O2− production level, Average: 10 mg BH4 dihydrochloride/kg/day oral, 8 weeks
Experimental: as §1, §2
Measurement of O2^− production level was made by the lucigenin-enhanced chemiluminescence method (Ohara et al., J. Clin. Invest. 91: 2546, 1993).

[5] = molecular target: T1, endothelial NOS (eNOS) (Rattus norvegicus, UniProt Q62600); experiment: Endothelial NOS activity in thoracic aorta sections; type: in vivo, Sprague-Dawley rats; details: for eNOS activity, Average: 10 mg/kg/day oral, 8 weeks
T1 construct: After 8 weeks, the thoracic aorta was collected; from tissue; host or cells: thoracic aorta sections with endothelium (EC (+)) of Sprague-Dawley rats
Experimental: as §1, §2
Measurement of eNOS activity was made according to Rees, D. et al., Hypertension 28: 367, 1996.

[6] = tested on: thoracic aorta sections; experiment: Endothelium-dependent vasorelaxation induced by calcium ionophore (A23187), isometric tensiometry; type: in vivo, Sprague-Dawley rats; details: FR group, EC (+), A23187 3×10^−7 M
Experimental: as §1
Group-to-group statistic analyses were made by one-way ANOVA, with the significance level being p<0.05. Multiple comparison was made by Bonferronl/Dunn, with the significance level being p<0.05. […]

[7] = CTR + BH4 group (starch feed), EC (+)
[8] = FR + BH4 group (fructose-fed, insulin resistant), EC (+)

## C[C@H](O)[C@H](O)C1CNc2nc(N)[nH]c(=O)c2N1 (stereo partly drawn) [(6R,S)-5,6,7,8-tetrahydrobiopterin]
[1]
  toxicity (in words): only slightly toxic

## CC(O)C(O)C1CNc2nc(N)[nH]c(=O)c2N1 [BH4 dihydrochloride, (6R)-L-erythro-5,6,7,8-tetrahydrobiopterin]
[2]
  acute toxicity: ≥ 2 g/kg (body weight)

## CC(O)C(O)C1CNc2nc(N)[nH]c(=O)c2N1 [BH4, (6R)-L-erythro-5,6,7,8-tetrahydrobiopterin]
[3]; CTR + BH4 group, EC (+)
  Endothelium-dependent vasorelaxation induced by acetylcholine, Average: 92.9 % maximum relaxation
  Endothelium-dependent vasorelaxation induced by acetylcholine, Average (TABLE 3): 92.9 % maximum relaxation
[3]; CTR group
  change of endothelium-dependent vasorelaxation by BH4 administration (in words): any significant change was not observed
[3]; FR + BH4 group, EC (+)
  Endothelium-dependent vasorelaxation induced by acetylcholine, Average: 82.6 % maximum relaxation
  Endothelium-dependent vasorelaxation induced by acetylcholine, Average (TABLE 3): 82.6 % maximum relaxation
[3]; FR group, EC (+)
  change of acetylcholine-induced endothelium-dependent vasorelaxation by BH4 administration (in words): significantly (p<0.001) recovered
[4]; [7]
  O2− production level, Average: 189.3 100 cpm/mg dry weight
[4]; CTR group
  change of O2− production level by BH4 administration (in words): any significant change was not observed
[4]; EC (−) endothelium-separated sections
  O2− production level, difference among the 4 groups (in words): No significant difference
[4]; [8]
  O2− production level, Average: 118.0 100 cpm/mg dry weight
[4]; FR group, EC (+)
  change of O2− production level by BH4 administration (in words): significantly (p<0.001) decreased
[5]; [7]
  eNOS activity, Average: 57.0 pmol/min/mg protein
[5]; CTR group
  change of eNOS activity by BH4 administration (in words): any significant change was not observed
[5]; [8]
  eNOS activity, Average: 60.2 pmol/min/mg protein
[5]; FR group, EC (+)
  change of eNOS activity by BH4 administration (in words): significantly (p<0.001) improved
[6]
  change of calcium ionophore-induced endothelium-dependent vasorelaxation by BH4 administration (in words): significantly (p<0.001) recovered
